# pIC50: −log10 of the molar value.
# Target: ROCK2 (human) (UniProt O75116)
# Test: Inhibition of ROCK2 Kinase Activity
# ROCK2 (human), sequence (O75116 whole entry, looked up): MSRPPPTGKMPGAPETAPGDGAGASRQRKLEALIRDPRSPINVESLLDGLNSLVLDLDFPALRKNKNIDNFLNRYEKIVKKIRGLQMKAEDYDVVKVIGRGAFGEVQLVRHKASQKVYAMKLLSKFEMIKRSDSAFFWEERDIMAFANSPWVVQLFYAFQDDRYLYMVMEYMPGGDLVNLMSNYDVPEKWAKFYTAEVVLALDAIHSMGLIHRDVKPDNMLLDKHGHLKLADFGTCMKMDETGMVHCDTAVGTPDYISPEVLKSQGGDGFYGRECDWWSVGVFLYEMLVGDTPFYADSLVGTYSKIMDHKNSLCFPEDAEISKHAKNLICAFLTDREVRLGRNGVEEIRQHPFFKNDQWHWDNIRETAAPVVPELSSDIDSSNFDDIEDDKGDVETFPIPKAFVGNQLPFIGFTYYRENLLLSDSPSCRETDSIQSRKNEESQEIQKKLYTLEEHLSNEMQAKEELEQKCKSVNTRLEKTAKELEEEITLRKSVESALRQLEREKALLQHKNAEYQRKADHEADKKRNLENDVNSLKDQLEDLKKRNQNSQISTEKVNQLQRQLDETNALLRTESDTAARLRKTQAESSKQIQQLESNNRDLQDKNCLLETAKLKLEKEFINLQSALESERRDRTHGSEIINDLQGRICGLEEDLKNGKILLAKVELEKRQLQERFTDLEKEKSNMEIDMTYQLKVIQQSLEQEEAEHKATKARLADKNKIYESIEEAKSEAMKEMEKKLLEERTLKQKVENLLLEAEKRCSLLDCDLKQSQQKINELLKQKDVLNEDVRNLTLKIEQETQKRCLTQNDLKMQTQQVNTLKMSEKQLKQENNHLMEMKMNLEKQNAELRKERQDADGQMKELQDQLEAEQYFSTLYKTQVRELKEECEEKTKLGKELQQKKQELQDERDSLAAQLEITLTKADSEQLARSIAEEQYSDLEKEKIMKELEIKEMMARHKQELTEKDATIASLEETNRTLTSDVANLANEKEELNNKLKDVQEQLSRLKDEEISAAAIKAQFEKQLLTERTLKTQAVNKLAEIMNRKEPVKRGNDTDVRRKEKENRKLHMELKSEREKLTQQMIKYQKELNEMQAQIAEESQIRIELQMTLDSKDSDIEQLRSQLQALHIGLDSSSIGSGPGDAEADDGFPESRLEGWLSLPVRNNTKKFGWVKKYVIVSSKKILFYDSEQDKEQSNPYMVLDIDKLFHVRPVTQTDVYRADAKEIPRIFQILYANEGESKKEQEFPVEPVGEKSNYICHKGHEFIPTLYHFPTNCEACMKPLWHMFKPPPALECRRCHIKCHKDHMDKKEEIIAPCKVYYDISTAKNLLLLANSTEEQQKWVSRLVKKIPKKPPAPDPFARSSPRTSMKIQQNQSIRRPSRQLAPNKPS
row,Compound,pIC50
1,CC(=O)c1ccccc1C(=O)NCc1nc(-c2ccncc2)n[nH]1,< 5.30
2,Cc1cccc(CCC(=O)NCc2nc(-c3c[nH]c4ncccc34)n[nH]2)c1,< 5.30
3,O=C(NCc1nc(-c2ccncc2)n[nH]1)c1cc(Br)ccc1Cl,< 5.30
4,CN(C=O)c1ccc(C(=O)NCc2nc(-c3ccncc3)n[nH]2)cc1,< 5.30
5,CCCc1ccc(C(=O)NCc2nc(-c3ccncc3)n[nH]2)cc1,< 5.30
6,COc1cccc(C(=O)NCc2nc(-c3ccncc3)n[nH]2)c1OC,< 5.30
7,O=C(NCc1nc(-c2ccncc2)n[nH]1)c1ccccc1,< 5.30
8,O=C(C=Cc1ccccc1)NCc1nc(-c2ccncc2)n[nH]1,< 5.30
9,CC(C)(C)OC(=O)NCC(=O)NCc1nc(-c2c[nH]c3ncccc23)n[nH]1,< 5.30
10,CC(C(=O)NCc1nc(-c2ccncc2)n[nH]1)c1ccc(O)cc1 (configuration not stated),< 5.30
11,COc1cc(Cl)ccc1C(=O)NCc1nc(-c2ccncc2)n[nH]1,< 5.30
12,CCCCc1ccc(C(=O)NCc2nc(-c3c[nH]c4ncccc34)n[nH]2)cc1,< 5.30
13,CC(C)(C)OC(=O)N1CCCCC1C(=O)NCc1nc(-c2ccncc2)n[nH]1 (configuration not stated),< 5.30
14,c1ccc(COc2ccc(CNCc3nc(-c4ccncc4)n[nH]3)cc2)cc1,< 5.30
15,O=C(NCc1nc(-c2ccncc2)n[nH]1)c1ccc2cccc(O)c2n1,< 5.30
16,O=C(NCc1nc(-c2c[nH]c3ncccc23)n[nH]1)c1ccccc1-c1ccccc1,< 5.30
17,O=C(NCc1nc(-c2ccncc2)n[nH]1)c1ccccc1C(=O)c1ccc(F)cc1,< 5.30
18,COc1cc(OC)c(C(=O)NCc2nc(-c3ccncc3)n[nH]2)c(OC)c1,< 5.30
19,COc1cc(C=CC(=O)NCc2nc(-c3ccncc3)n[nH]2)ccc1O,< 5.30
20,CN(C=O)c1ccc(C(=O)NCc2nc(-c3c[nH]c4ncccc34)n[nH]2)cc1,< 5.30
21,CC(C)(C)OC(=O)NC(Cc1ccccc1)C(=O)NCc1nc(-c2ccncc2)n[nH]1 (configuration not stated),< 5.30
22,COc1cc(C(=O)NCc2nc(-c3ccncc3)n[nH]2)cc(OC)c1O,< 5.30

row,Compound,pIC50
1,Cc1cc(C(=O)NCc2nc(-c3ccncc3)n[nH]2)cc(Cl)n1,< 5.30
2,COc1cccc(C(=O)NCc2nc(-c3c[nH]c4ncccc34)n[nH]2)c1OC,< 5.30
3,O=C(NCc1nc(-c2ccncc2)n[nH]1)c1ccc(Cl)c(Br)c1,< 5.30
4,O=C(Cc1ccccc1)NCc1nc(-c2c[nH]c3ncccc23)n[nH]1,< 5.30
5,O=C(NCc1nc(-c2ccncc2)n[nH]1)c1cscn1,< 5.30
6,Cc1cc(C(=O)NCc2nc(-c3c[nH]c4ncccc34)n[nH]2)n[nH]1,< 5.30
7,COc1ccc([N+](=O)[O-])c(C(=O)NCc2nc(-c3ccncc3)n[nH]2)c1,< 5.30
8,Cc1nc(Br)sc1C(=O)NCc1nc(-c2c[nH]c3ncccc23)n[nH]1,< 5.30
9,O=Cc1ccccc1C(=O)NCc1nc(-c2c[nH]c3ncccc23)n[nH]1,< 5.30
10,COc1ccc(C(=O)NCc2nc(-c3ccncc3)n[nH]2)cc1O,< 5.30
11,O=C(NCc1nc(-c2c[nH]c3ncccc23)n[nH]1)c1cnc(O)c(Cl)c1,< 5.30
12,CC(C)(C)C(=O)NCc1nc(-c2c[nH]c3ncccc23)n[nH]1,< 5.30
13,Cc1c(C(=O)NCc2nc(-c3c[nH]c4ncccc34)n[nH]2)cccc1[N+](=O)[O-],< 5.30
14,CCCOc1ccc(C(=O)NCc2nc(-c3c[nH]c4ncccc34)n[nH]2)cc1,< 5.30
15,O=C(c1cccs1)N1CCn2nc(-c3ccncc3)nc2C1,< 5.30
16,COc1cc(C=CC(=O)NCc2nc(-c3c[nH]c4ncccc34)n[nH]2)ccc1O,< 5.30
17,O=C(NCc1nc(-c2ccncc2)n[nH]1)c1ccc(F)cc1Cl,< 5.30
18,O=C(Cc1ccc(Br)cc1)NCc1nc(-c2ccncc2)n[nH]1,< 5.30
19,O=C(NCc1nc(-c2c[nH]c3ncccc23)n[nH]1)c1ccc(C(F)(F)F)cc1[N+](=O)[O-],< 5.30
20,CCOc1ccc2ccccc2c1C(=O)NCc1nc(-c2c[nH]c3ncccc23)n[nH]1,< 5.30
21,O=C(C=Cc1ccc(Cl)cc1)NCc1nc(-c2c[nH]c3ncccc23)n[nH]1,< 5.30

# Continued, values first:
row,pIC50,Compound
1,≥ 5.30,O=C(NCc1nc(-c2ccncc2)n[nH]1)c1cccc(Cl)c1O
2,< 5.30,O=C(NCc1nc(-c2c[nH]c3ncccc23)n[nH]1)c1c(F)c(F)c(F)c(F)c1F
3,≥ 5.30,COc1ccc(O)c(C(=O)NCc2nc(-c3ccncc3)n[nH]2)c1
4,< 5.30,Cc1ccc([N+](=O)[O-])c(C(=O)NCc2nc(-c3c[nH]c4ncccc34)n[nH]2)c1
5,< 5.30,CCC(C(=O)NCc1nc(-c2ccncc2)n[nH]1)c1ccncc1 (configuration not stated)
6,< 5.30,O=C(NCc1nc(-c2c[nH]c3ncccc23)n[nH]1)c1ccc(Cl)cc1Cl
7,< 5.30,Cc1cccc(C(=O)NCc2c[nH]c(-c3ccncc3)n2)c1O
8,< 5.30,COc1ccc(O)c(C(=O)NCc2nc(-c3c[nH]c4ncccc34)n[nH]2)c1
9,< 5.30,O=C(NCc1nc(-c2ccncc2)n[nH]1)c1cc2cc(Cl)ccc2o1
10,< 5.30,O=C(NCc1nc(-c2c[nH]c3ncccc23)n[nH]1)c1ccccc1
11,< 5.30,CC(C)(C)OC(=O)NC(Cc1ccc(O)cc1)C(=O)NCc1nc(-c2c[nH]c3ncccc23)n[nH]1 (configuration not stated)
12,< 5.30,O=C(NCc1nc(-c2c[nH]c3ncccc23)n[nH]1)c1ccc2cccc(O)c2n1
13,< 5.30,Cc1cccc(C(=O)NCc2nc(-c3c[nH]c4ncccc34)n[nH]2)c1C
14,< 5.30,COc1cc(C(=O)NCc2nc(-c3ccncc3)n[nH]2)c([N+](=O)[O-])cc1OC
15,< 5.30,O=C(NCc1nc(-c2c[nH]c3ncccc23)n[nH]1)c1ccccc1Oc1ccccc1
16,< 5.30,O=C(NCc1nc(-c2c[nH]c3ncccc23)n[nH]1)c1ccc(F)c(F)c1
17,< 5.30,O=C(NCc1nc(-c2c[nH]c3ncccc23)n[nH]1)c1cc([N+](=O)[O-])ccc1F
18,< 5.30,O=C(NCc1nc(-c2c[nH]c3ncccc23)n[nH]1)c1cc(O)ccc1[N+](=O)[O-]
19,< 5.30,CC(C(=O)NCc1nc(-c2ccncc2)n[nH]1)c1ccc(-c2ccccc2)c(F)c1 (configuration not stated)
20,< 5.30,Cc1ccc(C(=O)NCc2nc(-c3c[nH]c4ncccc34)n[nH]2)cc1Br
21,< 5.30,O=C(NCc1nc(-c2c[nH]c3ncccc23)n[nH]1)C1CCCCC1
22,< 5.30,COc1cc(OC)c(C(=O)NCc2nc(-c3c[nH]c4ncccc34)n[nH]2)cc1OC

row,pIC50,Compound
1,≥ 5.30,CC(=O)Oc1ccccc1C(=O)NCc1nc(-c2ccncc2)n[nH]1
2,< 5.30,Cc1cc(C(=O)NCc2nc(-c3c[nH]c4ncccc34)n[nH]2)cc(Cl)n1
3,< 5.30,O=C(NCc1nc(-c2ccncc2)n[nH]1)c1cc2ccccc2o1
4,< 5.30,O=C(NCc1nc(-c2c[nH]c3ncccc23)n[nH]1)c1cccnc1Cl
5,< 5.30,O=C(NCc1nc(-c2ccncc2)n[nH]1)C1CCCO1 (configuration not stated)
6,< 5.30,O=C(NCc1nc(-c2ccncc2)n[nH]1)c1ccc(OCc2ccccc2)cc1
7,< 5.30,O=C(NCc1nc(-c2ccncc2)n[nH]1)c1ccc(Cl)c([N+](=O)[O-])c1
8,< 5.30,O=C(C=Cc1ccccc1O)NCc1nc(-c2c[nH]c3ncccc23)n[nH]1
9,< 5.30,O=C(Cc1c(F)cccc1F)NCc1nc(-c2c[nH]c3ncccc23)n[nH]1
10,≥ 5.30,O=C(NCc1nc(-c2ccncc2)n[nH]1)c1cc2ccccc2cc1O
11,< 5.30,O=C(NCc1nc(-c2c[nH]c3ncccc23)n[nH]1)c1cc(Cl)c(O)c(Cl)c1
12,< 5.30,O=C(NCc1nc(-c2ccncc2)n[nH]1)c1ccc(Br)cc1
13,< 5.30,O=S(=O)(NCc1nc(-c2ccncc2)n[nH]1)c1ccc(O)cc1
14,< 5.30,O=C(CCc1ccccc1O)NCc1nc(-c2c[nH]c3ncccc23)n[nH]1
15,< 5.30,O=C(Cc1ccc(Br)cc1)NCc1nc(-c2c[nH]c3ncccc23)n[nH]1
16,< 5.30,O=C(NCc1nc(-c2c[nH]c3ncccc23)n[nH]1)c1ccc2ncccc2c1
17,< 5.30,O=C(CCc1ccccc1Br)NCc1nc(-c2c[nH]c3ncccc23)n[nH]1
18,< 5.30,Cc1ccccc1OCC(=O)NCc1nc(-c2ccncc2)n[nH]1
19,< 5.30,Cc1ccc(C(=O)CCC(=O)NCc2nc(-c3c[nH]c4ncccc34)n[nH]2)cc1
20,< 5.30,CC(C(=O)NCc1nc(-c2ccncc2)n[nH]1)c1cccc(C(=O)c2ccccc2)c1 (configuration not stated)
21,< 5.30,CCCCCCCC(=O)NCc1nc(-c2c[nH]c3ncccc23)n[nH]1
22,< 5.30,CC(C)(C)OC(=O)N1CCCC1C(=O)NCc1nc(-c2c[nH]c3ncccc23)n[nH]1 (configuration not stated)

row,pIC50,Compound
1,< 5.30,O=C(NCc1nc(-c2ccncc2)n[nH]1)c1ccc2ncccc2c1
2,< 5.30,CC(=O)NC(Cc1ccc(O)cc1)C(=O)NCc1nc(-c2ccncc2)n[nH]1 (configuration not stated)
3,< 5.30,O=C(NCc1nc(-c2ccncc2)n[nH]1)c1cc([N+](=O)[O-])ccc1F
4,< 5.30,CC(=O)Oc1cccc(C(=O)NCc2nc(-c3ccncc3)n[nH]2)c1
5,≥ 5.30,CC(C)(C)OC(=O)NCCCC(NC(=O)c1ccc(O)cc1O)c1nc(-c2ccncc2)n[nH]1 (configuration not stated)
6,< 5.30,O=C(NCc1nc(-c2c[nH]c3ncccc23)n[nH]1)c1cc(F)c(F)c(O)c1F
7,< 5.30,CCC(=O)C(=O)NCc1nc(-c2ccncc2)n[nH]1
8,< 5.30,CCOc1ccccc1C(=O)NCc1nc(-c2c[nH]c3ncccc23)n[nH]1
9,< 5.30,CC(C)(C)OC(=O)NCC(=O)NCc1nc(-c2ccncc2)n[nH]1
10,< 5.30,O=C(NCc1nc(-c2ccncc2)n[nH]1)c1cc([N+](=O)[O-])ccc1O
11,≥ 5.30,O=C(NCc1nc(-c2ccncc2)n[nH]1)c1cccc(Cl)c1[N+](=O)[O-]
12,≥ 5.30,O=C(NCc1nc(-c2ccncc2)n[nH]1)c1cccs1
13,≥ 5.30,Cc1cccc(C(=O)NCc2cc(-c3ccncc3)n[nH]2)c1O
14,≥ 5.30,Cc1c(O)ccc(C(=O)NCc2nc(-c3ccncc3)n[nH]2)c1O
15,≥ 5.30,Clc1ccc(SCc2n[nH]c(-c3ccncc3)n2)cc1
16,≥ 5.30,CC(C)c1cccc(C(=O)NCc2nc(-c3ccncc3)n[nH]2)c1O
17,≥ 5.30,O=C(NCc1nc(-c2ccncc2)n[nH]1)c1ccc([N+](=O)[O-])c(O)c1
18,≥ 5.30,CC(=O)Oc1ccc(C(=O)NCc2nc(-c3ccncc3)n[nH]2)cc1
19,≥ 5.30,CS(=O)(=O)Nc1cccc(C(=O)NCc2nc(-c3c[nH]c4ncccc34)cs2)c1
20,≥ 5.30,CC(C)(C)OC(=O)NC[C@H](NC(=O)c1ccc(O)cc1O)c1nc(-c2ccncc2)n[nH]1

# From the Kinase Knowledgebase extract (Sharma et al. 2016)
